In publication PMC6138237, “Machine intelligence decrypts β-lapachone as an allosteric 5-lipoxygenase inhibitor” (Chemical Science, 2018):
Like-named read-outs stand apart in the source and are kept apart here. Blank lines part the entries; values can stand above or below the molecule they belong to.

Assays:
15-LO-2 = biological target: T1, 15-LO-2 (Homo sapiens, UniProt O15296); test: 15-LO-2 inhibition assay, Cerep (Method A, fluorometry); format: biochemical; conditions: control
T1 sequence (O15296 1-676): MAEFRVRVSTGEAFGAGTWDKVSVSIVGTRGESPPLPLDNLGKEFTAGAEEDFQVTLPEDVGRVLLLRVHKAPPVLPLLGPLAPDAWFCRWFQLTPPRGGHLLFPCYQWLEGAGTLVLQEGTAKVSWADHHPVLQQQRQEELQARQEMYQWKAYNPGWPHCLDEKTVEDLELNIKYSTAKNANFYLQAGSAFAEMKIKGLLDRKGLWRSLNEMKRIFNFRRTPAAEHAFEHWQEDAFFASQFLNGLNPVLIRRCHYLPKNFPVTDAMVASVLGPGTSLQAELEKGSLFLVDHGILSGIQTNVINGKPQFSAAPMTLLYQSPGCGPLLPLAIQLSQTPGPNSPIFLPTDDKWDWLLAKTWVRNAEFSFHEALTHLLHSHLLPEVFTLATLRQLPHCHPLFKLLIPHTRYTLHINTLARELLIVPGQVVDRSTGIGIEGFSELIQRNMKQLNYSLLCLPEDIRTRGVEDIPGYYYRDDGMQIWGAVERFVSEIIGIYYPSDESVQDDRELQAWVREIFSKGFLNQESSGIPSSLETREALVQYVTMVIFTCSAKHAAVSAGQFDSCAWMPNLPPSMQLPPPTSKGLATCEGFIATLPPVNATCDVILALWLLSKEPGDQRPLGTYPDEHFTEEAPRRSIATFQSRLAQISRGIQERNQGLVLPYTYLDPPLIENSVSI

5-LO = biological target: T2, 5-LO (Homo sapiens, UniProt P09917); test: 5-LO inhibition assay, Cerep (Method A, indirect fluorogenic readout, Rhodamine 123); format: biochemical; conditions: 5-LO
T2 sequence (P09917 1-674): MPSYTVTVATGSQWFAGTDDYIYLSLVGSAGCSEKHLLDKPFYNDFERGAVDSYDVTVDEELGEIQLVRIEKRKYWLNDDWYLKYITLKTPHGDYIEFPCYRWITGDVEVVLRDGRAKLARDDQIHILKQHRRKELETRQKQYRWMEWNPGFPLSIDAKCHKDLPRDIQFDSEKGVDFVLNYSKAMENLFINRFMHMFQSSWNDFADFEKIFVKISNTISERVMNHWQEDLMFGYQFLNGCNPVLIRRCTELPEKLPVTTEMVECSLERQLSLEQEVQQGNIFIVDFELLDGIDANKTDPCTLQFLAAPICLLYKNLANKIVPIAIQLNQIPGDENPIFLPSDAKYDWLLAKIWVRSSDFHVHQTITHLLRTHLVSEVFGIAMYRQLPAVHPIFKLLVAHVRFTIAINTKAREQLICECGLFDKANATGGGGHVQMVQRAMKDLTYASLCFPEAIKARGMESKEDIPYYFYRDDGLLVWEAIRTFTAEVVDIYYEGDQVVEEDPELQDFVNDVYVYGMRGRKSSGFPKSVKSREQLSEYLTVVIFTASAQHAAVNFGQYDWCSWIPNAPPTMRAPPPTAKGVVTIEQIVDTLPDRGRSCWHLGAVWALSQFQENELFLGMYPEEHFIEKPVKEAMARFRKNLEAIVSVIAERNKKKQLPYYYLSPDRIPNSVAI

EP3 [1] = biological target: T3, EP3 (Homo sapiens, UniProt P43115); test: EP3 functional antagonist assay, Cerep (sulprostone 0.1 nM, impedance); conditions: EP3 concentration–inhibition curve; n = 2
T3 sequence (P43115 1-390): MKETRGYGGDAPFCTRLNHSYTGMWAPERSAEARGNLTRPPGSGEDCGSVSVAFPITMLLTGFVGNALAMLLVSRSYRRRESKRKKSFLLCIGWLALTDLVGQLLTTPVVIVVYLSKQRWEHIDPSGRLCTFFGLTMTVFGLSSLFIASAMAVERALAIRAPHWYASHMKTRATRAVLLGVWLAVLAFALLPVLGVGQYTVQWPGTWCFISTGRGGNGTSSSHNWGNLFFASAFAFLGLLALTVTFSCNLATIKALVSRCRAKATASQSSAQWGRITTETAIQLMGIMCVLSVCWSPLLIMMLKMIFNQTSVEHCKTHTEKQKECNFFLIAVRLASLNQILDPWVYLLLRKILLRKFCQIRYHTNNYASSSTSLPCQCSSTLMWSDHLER

PDE5 = PDE5 (Homo sapiens, UniProt O76074); test: Phosphodiesterase 5 inhibition assay, Cerep (scintillation counting); format: biochemical; conditions: PDE5; control
TRPV1 = TRPV1 (Homo sapiens, UniProt Q8NER1); test: TRPV1 functional agonist assay, Cerep (intracellular Ca2+); format: cell-based
Sequence of TRPV1 (Q8NER1 whole entry): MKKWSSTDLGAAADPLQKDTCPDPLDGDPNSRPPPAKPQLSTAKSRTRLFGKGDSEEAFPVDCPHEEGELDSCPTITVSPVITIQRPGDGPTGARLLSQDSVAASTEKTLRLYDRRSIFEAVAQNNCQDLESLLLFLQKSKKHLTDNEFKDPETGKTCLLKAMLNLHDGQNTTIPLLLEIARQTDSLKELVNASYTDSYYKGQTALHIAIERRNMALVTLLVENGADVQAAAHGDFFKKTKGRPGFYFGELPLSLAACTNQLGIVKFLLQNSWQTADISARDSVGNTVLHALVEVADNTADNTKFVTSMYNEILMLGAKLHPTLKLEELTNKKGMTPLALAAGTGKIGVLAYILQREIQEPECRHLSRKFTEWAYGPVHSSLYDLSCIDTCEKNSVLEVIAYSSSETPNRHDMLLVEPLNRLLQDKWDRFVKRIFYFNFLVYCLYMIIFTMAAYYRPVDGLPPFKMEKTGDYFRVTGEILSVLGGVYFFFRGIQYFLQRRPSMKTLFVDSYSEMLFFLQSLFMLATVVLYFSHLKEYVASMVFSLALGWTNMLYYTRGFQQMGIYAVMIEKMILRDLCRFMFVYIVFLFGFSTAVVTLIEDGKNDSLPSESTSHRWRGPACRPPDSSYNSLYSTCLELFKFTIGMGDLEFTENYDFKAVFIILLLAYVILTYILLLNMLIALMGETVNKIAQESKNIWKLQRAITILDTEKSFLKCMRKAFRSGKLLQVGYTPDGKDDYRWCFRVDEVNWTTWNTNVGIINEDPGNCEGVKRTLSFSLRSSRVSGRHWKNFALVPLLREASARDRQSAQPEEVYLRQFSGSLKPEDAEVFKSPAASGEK

EP1 = biological target: T4, EP1 (Homo sapiens, UniProt P34995); test: EP1 functional agonist assay, Cerep (intracellular Ca2+)
T4 sequence (P34995 1-402): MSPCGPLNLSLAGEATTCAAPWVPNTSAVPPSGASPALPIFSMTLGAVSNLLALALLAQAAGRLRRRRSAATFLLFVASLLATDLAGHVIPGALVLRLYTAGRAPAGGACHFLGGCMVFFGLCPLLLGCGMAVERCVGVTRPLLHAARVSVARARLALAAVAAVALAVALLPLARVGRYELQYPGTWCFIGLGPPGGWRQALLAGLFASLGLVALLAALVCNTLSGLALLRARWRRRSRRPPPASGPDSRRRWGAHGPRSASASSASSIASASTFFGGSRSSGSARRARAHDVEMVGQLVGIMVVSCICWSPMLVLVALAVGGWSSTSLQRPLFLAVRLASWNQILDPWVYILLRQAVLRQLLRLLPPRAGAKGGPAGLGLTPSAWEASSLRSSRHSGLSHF

TRPM8 = biological target: T5, TRPM8 (Homo sapiens, UniProt Q7Z2W7); test: TRPM8 functional agonist assay, Cerep (intracellular Ca2+); format: cell-based
T5 construct: Cerep, SA (fee-for-service assay) printed G018533 (citation number 33 glued on)
T5 sequence (Q7Z2W7 whole entry): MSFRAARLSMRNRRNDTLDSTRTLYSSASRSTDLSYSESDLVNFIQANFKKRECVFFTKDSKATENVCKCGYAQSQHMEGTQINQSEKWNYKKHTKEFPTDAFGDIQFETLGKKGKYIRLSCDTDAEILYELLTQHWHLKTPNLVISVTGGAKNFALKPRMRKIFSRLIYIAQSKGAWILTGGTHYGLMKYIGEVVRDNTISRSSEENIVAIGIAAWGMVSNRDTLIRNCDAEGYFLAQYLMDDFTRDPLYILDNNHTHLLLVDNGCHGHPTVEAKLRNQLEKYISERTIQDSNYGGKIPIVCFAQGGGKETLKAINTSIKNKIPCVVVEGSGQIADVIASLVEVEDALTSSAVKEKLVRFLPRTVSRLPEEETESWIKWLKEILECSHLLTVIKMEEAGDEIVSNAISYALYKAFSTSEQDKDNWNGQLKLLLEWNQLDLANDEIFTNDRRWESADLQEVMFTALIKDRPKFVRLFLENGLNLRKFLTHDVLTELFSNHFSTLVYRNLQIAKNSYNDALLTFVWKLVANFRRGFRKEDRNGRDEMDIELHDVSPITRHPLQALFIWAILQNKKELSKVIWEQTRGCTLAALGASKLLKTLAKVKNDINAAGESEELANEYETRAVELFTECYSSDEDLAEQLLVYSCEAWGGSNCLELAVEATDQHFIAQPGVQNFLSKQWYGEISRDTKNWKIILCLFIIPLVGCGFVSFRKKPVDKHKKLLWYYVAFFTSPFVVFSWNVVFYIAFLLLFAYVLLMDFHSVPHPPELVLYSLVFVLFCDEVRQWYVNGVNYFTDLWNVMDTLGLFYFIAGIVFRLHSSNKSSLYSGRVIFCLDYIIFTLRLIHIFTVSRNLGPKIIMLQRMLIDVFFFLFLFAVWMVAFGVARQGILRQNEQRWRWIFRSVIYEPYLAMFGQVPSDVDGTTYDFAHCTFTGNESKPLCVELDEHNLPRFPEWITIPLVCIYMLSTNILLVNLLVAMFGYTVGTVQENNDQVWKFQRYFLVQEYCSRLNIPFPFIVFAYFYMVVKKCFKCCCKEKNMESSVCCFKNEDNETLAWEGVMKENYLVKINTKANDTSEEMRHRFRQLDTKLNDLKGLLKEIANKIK

EP2 = EP2 (Homo sapiens, UniProt P43116); test: EP2 functional agonist assay, Cerep (cAMP, HTRF)
Sequence of EP2 (P43116 whole entry): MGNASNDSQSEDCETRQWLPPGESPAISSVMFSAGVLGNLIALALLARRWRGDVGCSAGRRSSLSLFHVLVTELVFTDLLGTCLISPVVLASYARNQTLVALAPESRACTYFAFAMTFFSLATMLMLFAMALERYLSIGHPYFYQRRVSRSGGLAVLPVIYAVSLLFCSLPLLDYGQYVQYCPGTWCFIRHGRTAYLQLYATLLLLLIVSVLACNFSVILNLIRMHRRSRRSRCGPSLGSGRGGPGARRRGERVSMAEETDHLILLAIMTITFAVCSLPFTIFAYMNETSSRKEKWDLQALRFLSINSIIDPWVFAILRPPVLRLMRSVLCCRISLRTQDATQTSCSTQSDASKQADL

EP3 [2] = biological target: T3, EP3; test: EP3 functional agonist assay, Cerep (impedance)
[3] = Dynamic light scattering (colloidal aggregation); format: physicochemical; conditions: 25 °C
EP4 = EP4 (Homo sapiens, UniProt P35408); test: EP4 functional agonist assay, Cerep (cAMP, HTRF)
Sequence of EP4 (P35408 whole entry): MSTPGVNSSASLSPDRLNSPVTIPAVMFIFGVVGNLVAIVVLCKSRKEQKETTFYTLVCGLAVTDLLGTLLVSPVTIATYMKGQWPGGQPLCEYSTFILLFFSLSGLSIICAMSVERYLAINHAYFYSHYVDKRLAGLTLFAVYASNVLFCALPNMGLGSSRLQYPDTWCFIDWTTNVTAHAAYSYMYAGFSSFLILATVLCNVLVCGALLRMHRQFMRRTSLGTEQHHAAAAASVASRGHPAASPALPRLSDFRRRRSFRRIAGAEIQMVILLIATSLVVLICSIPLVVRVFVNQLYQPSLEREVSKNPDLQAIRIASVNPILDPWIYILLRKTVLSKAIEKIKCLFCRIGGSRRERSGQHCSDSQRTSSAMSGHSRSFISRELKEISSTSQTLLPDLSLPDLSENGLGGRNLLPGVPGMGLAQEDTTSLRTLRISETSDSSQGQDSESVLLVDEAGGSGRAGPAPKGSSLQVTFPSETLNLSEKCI

SIK = SIK (Homo sapiens, UniProt P57059); test: ExpresS Diversity Kinase Profile, Cerep (LANCE): SIK; format: biochemical; conditions: control
Sequence of SIK (P57059 whole entry): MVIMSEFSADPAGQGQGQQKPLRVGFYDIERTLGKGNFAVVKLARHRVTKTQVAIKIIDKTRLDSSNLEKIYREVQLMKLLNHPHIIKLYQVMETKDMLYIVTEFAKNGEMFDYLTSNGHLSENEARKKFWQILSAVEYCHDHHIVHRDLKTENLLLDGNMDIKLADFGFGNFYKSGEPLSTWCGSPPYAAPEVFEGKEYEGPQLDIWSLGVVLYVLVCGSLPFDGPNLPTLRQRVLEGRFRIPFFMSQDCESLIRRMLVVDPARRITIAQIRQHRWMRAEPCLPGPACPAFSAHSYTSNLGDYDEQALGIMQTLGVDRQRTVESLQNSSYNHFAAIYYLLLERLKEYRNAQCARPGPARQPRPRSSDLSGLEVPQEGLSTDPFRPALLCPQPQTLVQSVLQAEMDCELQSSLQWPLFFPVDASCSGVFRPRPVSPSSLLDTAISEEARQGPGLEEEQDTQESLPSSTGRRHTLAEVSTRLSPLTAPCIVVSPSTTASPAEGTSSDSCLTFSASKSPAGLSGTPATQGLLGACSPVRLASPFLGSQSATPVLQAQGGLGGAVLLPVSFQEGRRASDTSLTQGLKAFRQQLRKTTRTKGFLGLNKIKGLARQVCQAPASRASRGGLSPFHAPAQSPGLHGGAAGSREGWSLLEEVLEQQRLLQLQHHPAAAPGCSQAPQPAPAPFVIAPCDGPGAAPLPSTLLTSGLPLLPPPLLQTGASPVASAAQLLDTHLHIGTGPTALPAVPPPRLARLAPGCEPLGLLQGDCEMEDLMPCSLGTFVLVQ

p38α = p38α (Homo sapiens, UniProt Q16539); test: ExpresS Diversity Kinase Profile, Cerep (LANCE): p38α; format: biochemical; conditions: control
Sequence of p38α (Q16539 whole entry): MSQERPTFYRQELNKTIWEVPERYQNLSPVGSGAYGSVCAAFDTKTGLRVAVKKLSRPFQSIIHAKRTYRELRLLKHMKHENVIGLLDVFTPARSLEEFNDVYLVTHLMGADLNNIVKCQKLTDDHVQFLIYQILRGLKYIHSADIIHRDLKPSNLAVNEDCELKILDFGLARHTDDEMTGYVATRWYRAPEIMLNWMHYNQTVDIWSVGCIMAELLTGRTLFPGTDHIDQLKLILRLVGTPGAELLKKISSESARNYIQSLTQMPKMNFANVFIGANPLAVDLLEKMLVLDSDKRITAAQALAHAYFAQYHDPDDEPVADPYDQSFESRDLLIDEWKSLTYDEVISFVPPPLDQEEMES

[4] = n = 2, read-out: % inhibition of control values, Mean
[5] = read-out: % inhibition of control values, 1st measure
[6] = read-out: % inhibition of control values, 2nd measure
[7] = read-out: % of control values, 1st measurement
[8] = read-out: % of control values, 2nd measurement
[9] = read-out: % of control values, Mean

Compound: N#C/C(=C\c1ccc(O)c(O)c1)C(=O)OCCc1cccs1 [Compound 2-TEDC, reference compound]
nHill (15-LO-2): 0.7

Compound: CC1(C)OC2=C(C(=O)C(=O)c3ccccc32)C1Nc1ccccc1 (stereo not drawn) [Compound 2]
inhibition at 5 µM (5-LO; [4]): 32.2%
inhibition at 5 µM (5-LO; [5]): 42.2%
inhibition at 5 µM (5-LO; [6]): 22.2%

Compound: CC1(C)OC2=C(C(=O)C(=O)c3ccccc32)C1Nc1ccc(Cl)cc1 (stereo not drawn) [Compound 3]
inhibition at 5 µM (5-LO; [4]): 31.1%
inhibition at 5 µM (5-LO; [5]): 33.1%
inhibition at 5 µM (5-LO; [6]): 29%

Compound: CC1(C)OC2=C(C(=O)C(=O)c3ccccc32)C1O (stereo not drawn) [Compound 4]
inhibition at 5 µM (5-LO; [4]): 72.8%
inhibition at 5 µM (5-LO; [5]): 77.4%
inhibition at 5 µM (5-LO; [6]): 68.2%

Compound: CC1(C)OC2=C(CC1O)C(=O)C(=O)c1ccccc12 (stereo not drawn) [Compound 5]
inhibition at 5 µM (5-LO; [4]): 41.1%
inhibition at 5 µM (5-LO; [5]): 47.2%
inhibition at 5 µM (5-LO; [6]): 35.5%

Compound: CC1(C)OC2=C(C(=O)C(=O)c3ccccc32)C1Nc1ccc(C(=O)/C=C/c2ccccc2)cc1 (stereo not drawn) [Compound 6]
inhibition at 5 µM (5-LO; [4]): 54.8%
inhibition at 5 µM (5-LO; [5]): 51.5%
inhibition at 5 µM (5-LO; [6]): 58.1%

Compound: COc1ccc(Br)cc1S(=O)(=O)NC(=O)/C=C/c1ccccc1Cc1ccc2ccccc2c1 [Compound L798106, reference compound]
IC50 (EP3 [1]): 0.37 µM

Compound: CC(C)=CCC1=C(O)C(=O)c2ccccc2C1=O [Lapachol, lapachol, reference compound]
remaining activity at 150 µM (TRPV1; [7]): -13.1%
remaining activity at 150 µM (TRPV1; [8]): -13.1%
remaining activity at 150 µM (TRPV1; [9]): -13.1%
remaining activity at 150 µM (EP1; [7]): -11.3%
remaining activity at 150 µM (EP1; [8]): -11.3%
remaining activity at 150 µM (EP1; [9]): -11.3%
agonist response (% of control) at 150 µM (TRPM8; [7]): -20.4%
agonist response (% of control) at 150 µM (TRPM8; [8]): -20.4%
agonist response (% of control) at 150 µM (TRPM8; [9]): -20.4%
remaining activity at 150 µM (EP2; [7]): -1.2%
remaining activity at 150 µM (EP2; [8]): -2.4%
remaining activity at 150 µM (EP2; [9]): -1.8%
remaining activity at 150 µM (EP3 [2]; [7]): 22.7%
remaining activity at 150 µM (EP3 [2]; [8]): 21.7%
remaining activity at 150 µM (EP3 [2]; [9]): 22.2%
Count rate (kcps) ([3]; 25 µM in H2O + 0.1% DMSO): 250.6 kcps
Count rate (kcps) ([3]; 50 µM in H2O + 0.1% DMSO): 198.4 kcps
Count rate (kcps) ([3]; 100 µM in H2O + 0.1% DMSO): 882.6 kcps
inhibition at 150 µM (5-LO; [4]): 87.1%
inhibition at 150 µM (5-LO; [5]): 84.9%
inhibition at 150 µM (5-LO; [6]): 89.3%
remaining activity at 150 µM (EP4; [7]): 8%
remaining activity at 150 µM (EP4; [8]): 5.8%
remaining activity at 150 µM (EP4; [9]): 6.9%

Compound: Cn1cc(C2=C(c3cn(CCCSC(=N)N)c4ccccc34)C(=O)NC2=O)c2ccccc21 [Ro-318220, reference compound]
nHill (SIK): 0.7

More lines, now with the values ahead:

inhibition at 5 µM (5-LO; [4]): 75.4%
inhibition at 5 µM (5-LO; [5]): 73.8%
inhibition at 5 µM (5-LO; [6]): 76.9%
Compound: CC(=O)OCC1OC(OCc2cn(CC3C4=C(OC3(C)C)c3ccccc3C(=O)C4=O)nn2)C(OC(C)=O)C(OC(C)=O)C1OC(C)=O (stereo not drawn) [Compound 7]

inhibition at 5 µM (5-LO; [4]): 66.6%
inhibition at 5 µM (5-LO; [5]): 68.4%
inhibition at 5 µM (5-LO; [6]): 64.8%
Compound: CC(=O)OCC1OC(OCc2cn(C3C4=C(OC3(C)C)c3ccccc3C(=O)C4=O)nn2)C(OC(C)=O)C(OC(C)=O)C1OC(C)=O (stereo not drawn) [Compound 8]

nHill (PDE5): 1.3
Compound: OCCN(CCO)c1nc(N2CCCCC2)c2nc(N(CCO)CCO)nc(N3CCCCC3)c2n1 [Dipyridamole, reference compound]

nHill (5-LO; control): 1.5
Compound: CC(Cc1ccc(O)c(O)c1)C(C)Cc1ccc(O)c(O)c1 (stereo not drawn) [NDGA, reference compound]

nHill (p38α): 1.3
Compound: Oc1ccc(-c2nc(-c3ccncc3)c(-c3ccc(F)cc3)[nH]2)cc1 [SB202190, reference compound]
